From PubChem BioAssay (NCI)
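Exposure lasted 48 hours, with cells grown in 96-well plates and compounds tested at five concentrations. The concentration for 50% growth inhibition is given as GI50. TGI denotes the concentration required for complete inhibition of growth.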

Key:
Test in all cases: NCI tumour cell line growth inhibition, 48 h
[1] = tested on: DLD-1 colon
[2] = tested on: DMS 114 small cell lung
[3] = tested on: DMS 273 small cell lung
[4] = tested on: HOP-18 NSCLC
[5] = tested on: KM20L2 colon
[6] = tested on: LXFL 529 NSCLC
[7] = tested on: M19-MEL melanoma
[8] = tested on: XF 498 CNS
[9] = tested on: RXF-631 renal
[10] = tested on: P388/ADR leukemia
[11] = tested on: SN12K1 renal

Structure (SMILES) | TGI [1] | TGI [2] | TGI [3] | TGI [4] | TGI [5] | TGI [6] | TGI [7] | TGI [8] | TGI [9] | TGI [10] | TGI [11] | GI50 [1] | GI50 [2] | GI50 [3] | GI50 [5] | GI50 [6] | GI50 [7] | GI50 [9] | GI50 [8] | GI50 [4]
CC(=O)O[C@H]1CC[C@@]2(C)C(=CC[C@@H]3C2CC[C@]2(C)Nc4nc5ccccc5cc4CC32)C1 (stereo partly drawn) | 15.6 µM | 18 µM | 13.8 µM | 13.5 µM | 3.66 µM | 12 µM | 12.2 µM | 18.5 µM |  |  |  |  |  |  |  |  |  |  |  | 
C=CCc1cc(OC)c2c(c1)C(OC)CC(c1ccc(OC)c(OC)c1)O2 (stereo not drawn) | > 100 µM | > 100 µM | > 100 µM |  | > 100 µM | > 100 µM | > 100 µM | > 100 µM | > 100 µM |  |  |  |  |  |  |  |  |  |  | 
CC1=C(C(=O)Nc2ccc(Cl)c(C(=O)OC(C)C)c2)SCCO1 | > 79.4 µM |  | 73.1 µM | > 100 µM | 73.9 µM |  | 75.5 µM | > 91.3 µM |  | 46.4 µM | 63.1 µM |  |  |  |  |  |  |  |  | 
CCOc1ccc(NC(=O)CC2C(=O)Nc3ccccc3S2(=O)=O)cc1 (stereo not drawn) | > 100 µM | > 100 µM |  | > 100 µM | > 100 µM | > 100 µM | > 100 µM | > 100 µM | > 100 µM |  |  |  |  |  |  |  |  |  |  | 
Cn1nc(-c2ccccc2)c2c(/C=C/c3ccccc3)onc2c1=O | > 100 µM | > 100 µM |  | > 100 µM | > 100 µM | > 100 µM | > 100 µM | 72.4 µM | > 100 µM |  |  |  |  |  |  |  |  |  |  | 
CC1(c2ccc(Cl)cc2)C2C(=O)NC(=O)C1C(=O)NC2=O (stereo not drawn) | > 100 µM |  | > 100 µM |  | > 100 µM | > 100 µM | > 100 µM | > 100 µM |  |  |  |  |  |  |  |  |  |  |  | 
Brc1ccc2ns[s+]c2c1 |  | > 100 µM | > 100 µM | > 100 µM | > 100 µM | > 100 µM | > 100 µM | > 100 µM | > 100 µM |  |  |  |  |  |  |  |  |  |  | 
CC(=O)OC1COC(n2c(=S)n(-c3ccccc3)c(=O)c3ccccc32)C(OC(C)=O)C1OC(C)=O (stereo not drawn) | > 100 µM | > 100 µM | > 100 µM | > 100 µM | > 100 µM | > 100 µM |  | > 100 µM | > 100 µM |  |  |  |  |  |  |  |  |  |  | 
CCOC(=O)C1(C)CCCCC(=O)N1 (stereo not drawn) | > 100 µM | > 100 µM | > 100 µM | > 100 µM | > 100 µM | > 100 µM | > 100 µM | > 100 µM | > 100 µM |  |  |  |  |  |  |  |  |  |  | 
CC(=O)C1=C(O)C2C3c4c[nH]c5cccc(c45)CC3C(C)(C)N2C1=O (stereo not drawn) | > 100 µM | > 100 µM | > 100 µM | 75.8 µM | > 100 µM | > 100 µM | > 100 µM | > 100 µM |  |  |  |  |  |  |  |  |  |  |  | 
O=C(Nc1nc2c(ncn2C2OC(CO)C(O)C2O)c(=O)[nH]1)c1ccccc1 (stereo not drawn) | > 100 µM |  | > 100 µM | > 100 µM | > 100 µM | > 100 µM | > 100 µM | > 100 µM | > 100 µM |  |  |  |  |  |  |  |  |  |  | 
CCCCCCC[CH2][Sn]1([CH2]CCCCCCC)[O]C(=O)c2cccnc2[O]1 | > 100 µM | > 100 µM | > 100 µM |  | > 100 µM | > 100 µM | > 100 µM | > 100 µM | > 100 µM |  |  | > 100 µM | > 100 µM | > 100 µM | > 100 µM | > 100 µM | > 100 µM | > 100 µM | 42.3 µM | 
c1ccc2c(c1)cc1n2CC2CN=NC12 (stereo not drawn) | > 100 µM |  | > 100 µM |  | > 100 µM | > 100 µM | > 100 µM |  | > 100 µM |  |  |  |  |  |  |  |  |  |  | 
CC(SC(=O)Nc1ccc(N=Nc2ccccc2)cc1)C(=O)O (stereo not drawn) |  | > 100 µM | > 100 µM |  | > 100 µM | > 100 µM |  |  |  |  |  |  |  |  |  |  |  |  |  | 
CSC(=Nc1ccccc1)/N=C(\SCc1ccccc1)N(C)C |  | 3.77 µM | 2.57 µM | 2.1 µM |  | 1.79 µM | 3.36 µM | 2.66 µM | 3.12 µM |  |  |  |  |  |  |  |  |  |  | 
COc1cc(CCc2ccc(N)cc2)cc(OC)c1OC | > 100 µM | 83.8 µM | > 100 µM | > 100 µM | > 100 µM | > 100 µM | > 100 µM | > 100 µM | > 100 µM |  |  |  |  |  |  |  |  |  |  | 
COc1ccc(/C=C/C(=O)c2sc(-n3nc(-c4ccccc4)cc3-c3ccccc3)nc2C)cc1 | > 100 µM | > 100 µM |  | > 100 µM | > 100 µM | > 100 µM | > 100 µM | > 100 µM | > 100 µM |  |  | > 100 µM |  |  |  | > 100 µM | > 100 µM | > 100 µM |  | > 100 µM
Cc1ccc(S(=O)(=O)N/N=C(/c2nc3ccc([N+](=O)[O-])cc3[nH]c2=O)C(O)c2ccc(C(O)/C(=N\NS(=O)(=O)c3ccc(C)cc3)c3nc4ccc([N+](=O)[O-])cc4[nH]c3=O)cc2)cc1 (stereo not drawn) | > 100 µM | > 100 µM | > 100 µM |  | > 100 µM | > 100 µM |  | > 100 µM | > 100 µM |  |  |  |  |  |  |  |  |  |  | 
CN(c1ccccc1)c1c(Cl)c(=O)oc2c1ccc1occc12 | > 100 µM | > 100 µM | > 100 µM | > 100 µM | > 100 µM | > 100 µM | > 100 µM |  | > 100 µM |  |  |  |  |  |  |  |  |  |  | 
CC(=O)NNc1nc(C)c(C(=O)NNC(=O)C(=O)Nc2ccc(Cl)cc2Cl)s1 | > 100 µM | > 100 µM |  |  | > 100 µM | > 100 µM | > 100 µM | > 100 µM |  |  |  |  |  |  |  |  |  |  |  | 
CC1=C(C(=O)Nc2cc(F)c(F)cc2F)C(c2ccc([N+](=O)[O-])cc2)C(C(=O)Nc2cc(F)c(F)cc2F)=C(C)N1 | > 100 µM | > 100 µM |  |  | > 100 µM | > 100 µM | > 100 µM |  |  |  |  |  |  |  |  |  |  |  |  | 
